# Key:
# [1] = Acute oral toxicity in mice; assay type: in vivo; details: in vivo, mouse, read-out: dose up to which no symptom occurs
# Experimental: (§1) By way of example there are described below the comparative tests made on difluorohydrate of N,N'-di(hydroxyethyl) piperazine and on fluorohydrate of hexadecylamine or "ELMEX 242".
# (§2) The acute toxidity was studies in rats and in mice.
# (§3) The animals came from a homogeneous breed. The mice weighed between 19 and 21 g and the rats weighed from 120 to 140 g. The mice were grouped in lots of 10 and the rats in lots of 8.
# (§4) The administrations took place orally at a volume of 0.5 ml per 20 g of mouse and 1 ml per 100 g of rat. The LD50 was determined by the method of Lichfield and Wilcoxon.
# (§5) As regards the difluorohydrate of N,N'-di(hydroxyethyl) piperazine, the administered solution was prepared by diluting the mother solution to 65.4%, the dilutions being made after having weighed this solution. The administered dose is expressed by weight, taking account of the indicated strength of this solution.
# (§6) For the solid "ELMEX 242" an aqueous suspension was prepared with the aid of solubilizing agents (e.g. Tween-polyoxyethylene sorbitan monolaurate). A very thick suspension is then obtained which tends to foam heavily, is difficult to get into the esophageal sound, and the determination of its volume is rendered difficult by the foam.
# (§7) The results obtained with the "ELMEX" are therefore rather approximate.
# mice = experiment: Acute oral toxicity in mice; assay type: in vivo
# Experimental: as §1, §2, §3, §4, §5, §6, §7
# [2] = Penetration of fluorine 18 into dental enamel after topical application (Muhlemann biopsy); set-up: species or system children
# Text: The anticariogenic activity of the difluorohydrate of N,N'-di(hydroxy-ethyl) piperazine has been evidenced by comparison with sodium fluoride known for its cariopreventive topical properties. A comparative study has been made of the penetration into the dental enamel of the fluorine contained in the molecule according to the invention and of the fluorine contained in sodium fluoride.
# For this comparison the difluorohydrate of N,N'-di(hydroxy-ethyl) piperazine was marked at the fluorine 18, by isotopic exchange by dissolving some crystals of the product according to the invention in a solution of pure fluorine 18 without entrainer. The same was done for the sodium fluoride.
# The study of the penetration of the fluorine into the enamel was made on several teeth to compare the behavior of the product of the invention and of sodium fluoride in supplying fluorine and in the penetration of the latter into the deepest layers of the dental tissue.
# The tests were performed on 30 premolar teeth taken from normal children 9 to 11 years old. Eighteen teeth were treated by topical application of the radioactive solutions of the difluoro-hydrate of N,N'-di(hydroxy-ethyl) piperazine or of NaF adjusted to pH=3.5; the other 12 were treated with the same solutions adjusted to a pH of 7.4.
# (§8) The radioactive solutions are obtained by dissolving 69 mg of the difluorohydrate and 81.3 mg of NaF, respectively, in 1 and 3 ml of fluorine 18 solution without entrainer. Thus solutions titering 1.23% fluorine are obtained.
# (§9) As the difluorohydrate solution is already at pH=3.5, it is sufficient to acidify the NaF solution by addition of about 0.2 ml hydrochloric acid 6 M, to 3 ml of the radioactive solution.
# In this case, the difluorohydrate's nature of organic salt can be preserved and its solution neutralized at 1.23% of fluorine in 1 ml by addition of about 110 mg of its N,N'-di(hydroxyethyl) piperazine base.
# For the experimentation one determines two enamel plagues on each tooth. For this, one applies on the crowns, separated from each other by 2 or 3 mm, two round disks of a diameter of 3 mm cut out from adhesive tape. The crown is then covered with a layer of impermeable varnish. When the varnish is dry, the patches of adhesive tape are removed, thus bearing the two zones of enamel to be treated.
# The spot application of the fluorinated solution is done by means of a sponge imbibed with 0.5 ml of the solution. This sponge is inserted in a polyethylene tube to limit the surface of contact between tooth and sponge to the circumference of the enamel zone treated.
# The sampling of the enamel is done by Muhlemann's biopsy technique: A patch of blotting paper impregnated with 4 microliters of perchloric acid 2 M is applied on the trated enamel for 30 seconds. The enamel is dried with a second patch of blotting paper. It is on these patches which contain the dissolved enamel that we measure the radioactivity.
# There are given in Table I all the results relating to the acid treatment, in Table II all the results relating to the treatment at neutral pH. The fluorine values are those obtained by measuring the radioactivity of the samples.
# The columns […] and N2 represent the mass of fluorine measured on the second biopsy.
# We have marked R1 and R1 and R2 the ratios G1 /G2 and N1 /N2, and R3 the ratio. [formula] R1 and R2 permitting to compare the quantities of fluorine at the same depth. R3 permits comparing the accumulation of fluorine in the tooth.
# in vivo = assay type: in vivo; details: in vivo; rat, oral; Lichfield and Wilcoxon
# Experimental: as §1, §2, §3, §4, §5, §6, §7
# [3] = pH of the difluorohydrate solution; assay type: physicochemical; details: solution titering 1.23% fluorine
# Experimental: as §8, §9
# [4] = Ionizable fluorine content; assay type: physicochemical
# Hygroscopicity = assay type: physicochemical; details: crystals
structure (smiles),measurement,setting,value
"OCCN1CCN(CCO)CC1 [DIFLUOROHYDRATE OF N,N'-DI(HYDROXY-ETHYL) PIPERAZINE]",NOAEL at 240 h,[1],≥ 400 mg/kg
same,toxicity compared with ELMEX 242,"mice; conclusion from mouse and rat, solution versus suspension","clearly more toxic than ""ELMEX 242"""
same,course: death and recovery,mice; mouse,Death occurs after one hour at the highest doses.
same,symptoms,mice; mouse,"At higher doses the mice are totally immobile. They show light trembling, but over the entire body, also diarrhea."
same,Deaths,"mice; mouse, 200 mg/kg, D + 1, 10 per lot",0
same,Deaths,"mice; mouse, 200 mg/kg, D + 2, 10 per lot",0
same,Deaths,"mice; mouse, 200 mg/kg, D + 5, 10 per lot",0
same,Deaths,"mice; mouse, 200 mg/kg, D + 10, 10 per lot",0
same,Deaths,"mice; mouse, 300 mg/kg, D + 1, 10 per lot",0
same,Deaths,"mice; mouse, 300 mg/kg, D + 2, 10 per lot",0
same,Deaths,"mice; mouse, 300 mg/kg, D + 5, 10 per lot",0
same,Deaths,"mice; mouse, 300 mg/kg, D + 10, 10 per lot",0
same,Deaths,"mice; mouse, 400 mg/kg, D + 1, 10 per lot",2
same,Deaths,"mice; mouse, 400 mg/kg, D + 2, 10 per lot",3
same,Deaths,"mice; mouse, 400 mg/kg, D + 5, 10 per lot",3
same,Deaths,"mice; mouse, 400 mg/kg, D + 10, 10 per lot",3
same,Deaths,"mice; mouse, 500 mg/kg, D + 1, 10 per lot",3
same,Deaths,"mice; mouse, 500 mg/kg, D + 2, 10 per lot",5
same,Deaths,"mice; mouse, 500 mg/kg, D + 5, 10 per lot",5
same,Deaths,"mice; mouse, 500 mg/kg, D + 10, 10 per lot",5
same,Deaths,"mice; mouse, 600 mg/kg, D + 1, 10 per lot",4
same,Deaths,"mice; mouse, 600 mg/kg, D + 2, 10 per lot",7
same,Deaths,"mice; mouse, 600 mg/kg, D + 5, 10 per lot",8
same,Deaths,"mice; mouse, 600 mg/kg, D + 10, 10 per lot",8
same,Deaths,"mice; mouse, 700 mg/kg, D + 1, 10 per lot",9
same,Deaths,"mice; mouse, 700 mg/kg, D + 2, 10 per lot",10
same,Deaths,"mice; mouse, 700 mg/kg, D + 5, 10 per lot",10
same,Deaths,"mice; mouse, 700 mg/kg, D + 10, 10 per lot",10
same,Deaths,"mice; mouse, 800 mg/kg, D + 1, 10 per lot",7
same,Deaths,"mice; mouse, 800 mg/kg, D + 2, 10 per lot",8
same,Deaths,"mice; mouse, 800 mg/kg, D + 5, 10 per lot",9
same,Deaths,"mice; mouse, 800 mg/kg, D + 10, 10 per lot",9
same,Deaths,"mice; mouse, 1000 mg/kg, D + 1, 10 per lot",10
same,Deaths,"mice; mouse, 1000 mg/kg, D + 2, 10 per lot",10
same,Deaths,"mice; mouse, 1000 mg/kg, D + 5, 10 per lot",10
same,Deaths,"mice; mouse, 1000 mg/kg, D + 10, 10 per lot",10
same,persistence of the ill state,"mice; mouse, doses above 400 mg/kg",at least 24 hours
same,time to onset of coma,"mice; mouse, doses above 400 mg/kg",about 45 minutes
same,cases with R1 less than 1,"[2]; acid medium, 18 teeth",16 cases
same,cases with R3 between 1 and 1.7,"[2]; acid medium, 18 teeth",8 cases
same,cases with R3 greater than 1.7,"[2]; acid medium, 18 teeth",4 cases
same,cases with R3 less than 1,"[2]; acid medium, 18 teeth",5 cases
same,mean value of R3,"[2]; acid medium, 18 teeth, standard deviation 0.6",1.5
same,cases with R1 greater than 1,"[2]; neutral medium, 12 teeth",10 cases
same,cases with R3 between 1 and 1.7,"[2]; neutral medium, 12 teeth",7 cases
same,cases with R3 greater than 1.7,"[2]; neutral medium, 12 teeth",2 cases
same,cases with R3 less than 1,"[2]; neutral medium, 12 teeth",3 cases
same,mean value of R1,"[2]; neutral medium, 12 teeth",3.0
same,average of R3,"[2]; neutral medium, 12 teeth, standard deviation 0.4",1.2
same,"average fluorine sampled in the two biopsies, acid pH compared with neutral pH",[2]; pH 3.5 versus pH 7.4,2.6
same,anticariogenic action compared with sodium fluoride,[2]; same pH conditions,effects comparable to those of sodium fluoride
same,LD50 at 240 h,in vivo,790 mg/kg
same,pH of the solution,[3],3.5
same,ionizable fluorine content,[4],15.18%
same,hygroscopicity,Hygroscopicity,very hygroscopic
same,hygroscopicity,Hygroscopicity; listed as difluorohydrate,particularly hygroscopic

# From patent publication US4323550A, “Halogenohydrates of N,N-disubstituted derivatives of piperazine having anticariogenic properties” (priority 1976, dated 1982)
